Data on 1 molecule can be found in US20190083420A1, “METHODS OF USING (2R, 6R)-HYDROXYN[…] (2S, 6S)-HYDROXYN[…] THE TREATMENT OF DEPRESSION, ANXIETY, ANHEDONIA, FATIGUE, SUICIDAL IDEATION, AND POST TRAUMATIC STRESS DISORDERS” (The Uinited States of America, as represented by the …, priority 2016, published 2019).

Assay type in all cases: in vivo
Data set [1] has as its system mice. Put plainly: Accelerating rotarod (motor coordination). The note with it: 5-60 min post-injection, i.p. How it is done: The rotarod test was conducted to compare the effects of ketamine, (2S,6S)-HNK and (2R,6R)-HNK on motor coordination. The experiment consisted of two phases: training phase (4 days) and a test phase (1 day). On each of the training days five trials (trial time: 3 min) were conducted with an inter-trial interval of two min Mice were individually placed on the rotarod apparatus (HTC Life Science; Woodland Hills, Calif., USA) and the rotor (3.75 inch diameter) accelerated from 5-20 RPM over a period of three minutes. Latency to fall was recorded for each trial. Animals with an average of <100 sec of latency to fall during the last training day were excluded from the experiment. On the test day (day 5), mice received (i.p.) injections of saline, (R,S)-KET (10 mg/kg), (2S,6S)-HNK (25 or 125 mg/kg) or (2R,6R)-HNK (2.5 or 125 mg/kg) and were tested in the rotating rod 5-. 10-, 15-, 20-, 30- and 60-min post-injection using the same procedure described for the training days.

Data set [2] deals with mice. Put plainly: Chronic corticosterone-induced anhedonia, sucrose preference test. The note with it: single administration, measured after 24 hours. As for the experimental part:
For assessing the baseline sucrose preference, mice were singly housed for 24 hours and presented with two identical bottles containing either tap water or 1% sucrose solution. Following baseline sucrose measurement, mice were re-grouped housed (5 mice per cage) and treated for 4 weeks with corticosterone (25 μg/ml equivalent) given in water bottles. Prior to initiation of any behavioral measurements, animals were weaned off corticosterone treatment; 3 days corticosterone 12.5 μg/ml and 3 days corticosterone 6.25 μg/ml, followed by 1 week of complete withdrawal from the drug. Mice were subsequently singly-housed in freshly-made home cages and provided with two bottles containing either tap water or 1% sucrose solution. Twenty-four hours later, mice that developed anhedonia phenotype (<55% sucrose preference) were treated with saline or (2R,6R)-HNK (10 mg/kg) and sucrose preference measured after an additional 24 hours.

The next data set relates to male CD-1 mice. Put plainly: Novelty-suppressed feeding (NSF). The note with it: i.p. The source says: Male CD-1 mice (8-10 weeks old, Charles River Laboratories, Mass., USA) were housed in groups of four-five per cage with a constant 12-hour light/dark cycle (lights on/off at 07:00/19:00). Food and water were available ad libitum. Mice acclimatized to the new environment for seven days prior to the start of the experiments. For the whole-cell NMDA current electrophysiological recordings, male Sprague-Dawley rats (housed three per cage; Charles River, Wilmington, Mass.) were used. EPSC recording were done from rats at postnatal day 24-25. All experimental procedures were approved by the University of Maryland, Baltimore Animal Care and Use Committee and were conducted in full accordance with the National Institutes of Health Guide for the Care and Use of Laboratory Animals.
Mice were singly housed and food-deprived for twenty-four hours in freshly-made home-cages. Two normal chow diet pellets were placed on a square food platform (10×10 cm) in the center of an open-field arena (40×40 cm). […] The time needed for the mice to take a bite of food was recorded over a 10 min period by a trained observer blind to the treatment groups. After the test, the mice were returned to their home cage containing pre-weighed food pellets, and latency to bite the food as well as consumption was recorded for a period of 10 min.

In data set [3] the test system is mice. The data set is described as follows: Chronic corticosterone-induced anhedonia, female urine sniffing test. To be noted: single administration, mice with anhedonic phenotype, re-test 24 hours later. How it is done: A separate cohort of mice were treated with the same chronic corticosterone administration paradigm as described above, and 24 hours later assessed for female urine sniffing preference as a measure of hedonic behavior. Mice were singly-housed in freshly-made home cages for a habituation period of 10 min. Subsequently, one plain cotton tip was secured on the center of the cage wall and mice were allowed to sniff and habituate to the tip for a period of 30 min. Then, the plain cotton tip was removed and replaced by two cotton tip applicators one infused with fresh female mouse estrus urine and the other with fresh male mouse urine. These applicators were presented at the same time and secured at the two corners of the cage wall. Sniffing time for both the female and male urine was scored by a trained observer for a period of three minutes.

Molecules are shown by their SMILES. Entries after “also recorded” stand apart in the source; their conditions may differ.

For `N[C@@]1(c2ccccc2Cl)CCC[C@@H](O)C1=O` [(2R,6R)-HNK, (2R,6R)-2-amino-2-(2-chlorophenyl)-6-hydroxycyclohexanone], the “motor coordination in the rotarod” value with mice [1] is recorded as “did not affect coordination”. Moreover, in the data set with mice [2], the “reversal of chronic corticosterone-induced decrease in sucrose preference” value is recorded as “reversed chronic corticosterone-induced decreases in sucrose preference; also recorded: reversed chronic corticosterone-induced anhedonia”. In addition, in the data set with male CD-1 mice, the “antidepressant-like effect in novelty-suppressed feeding (latency to feed)” value is recorded as “dose-dependent antidepressant-like effects; also recorded: dose-dependent antidepressant action”. Further, the “reversal of chronic corticosterone-induced decrease in female urine sniffing preference” value in the data set on mice [3] is given as “reversed chronic corticosterone-induced decrease in female urine sniffing preference; also recorded: reversed chronic corticosterone-induced anhedonia”.
